Measurements as given in patent US20130089907A1, “HYDROGEN PRODUCTION METHOD USING ALCOHOL AND PHOTOSYNTHETIC BACTERIA” (priority 2010, published 2013).
Where “and” joins values, the source holds several entries; their conditions need not be identical. Identical values can stand only once. Like-named read-outs stand apart in the source and are kept apart here.

How the values were obtained:
R. sphaeroides [1] = assay: Hydrogen production by R. sphaeroides under photosynthetic condition in the presence of alcohol (GC of gas phase); type: cell-based, Rhodobacter sphaeroides; details: for efficiency of hydrogen production: 10 Watts/m^2, 30° C., anaerobic
Experimental: For the hydrogen production, R. sphaeroides 2.4.1(ATCC BAA-808, Cohen-Bazire et al. 1956. J. Cell. Comp. Physiol. 49: 25-68) or R. sphaeroides KCTC 12085 were used. To grow the cells, basically Sistrom minimal medium [20 mM KH2PO4, 3.8 mM (NH4)2SO4, 34 mM succinate, 0.59 mM L-glutamate, 0.30 mM L-aspartate, 8.5 mM NaCl, 1.05 mM nitrilotriacetic acid, 1.2 mM MgCl26H2O, 0.23 mM CaCl27H2O, 25 µM FeSO47H2O, 0.16 M (NH4)6Mo7O244H2O, 4.7 M EDTA, 38 M ZnSO47H2O, 9.1 M MnSO4H2O, 1.6 M CuSO45H2O, 0.85 M Co(NO3)26H2O (II), 1.8 M H3BO3, 8.1 M Nicotinic acid, 1.5 M Thiamine HCl, 41 nM biotin (Sistrom, W. R, 1962. J. Gen. Microbiol. 28: 607-616)] were used with the following modifications. To optimize the activity of nitrogenase, Ammonium molybdate was replaced with the same amount of Sodium molybdate, or 7 mM of L-glutamate was used instead of ammonium sulfate, or succinate was replaced with 30 mM malate. To investigate the effect of ammonium, 2 mM Ammonium chloride was added.
R. sphaeroides was inoculated at the concentration of 10^8 CFU/ml in 10 ml of Sistrom minimal medium and incubated for 120 hrs. to test the hydrogen production at the following condition: 10 Watts/m^2, 30° C., anaerobic. To measure the hydrogen produced, the cells were incubated in a serum vial which was air tight. Before use the air in the vial was replaced with argon gas to remove oxygen. During the reaction, an aliquot of gas in the gas phase was sampled from the vial using the gas-tight syringe, which was further analyzed by a Gas Chromatography (GC, Shimadzu, Japan).
(§1) Each strain was inoculated to the medium as described above at 10^8 CFU/ml and incubated for 120 hours under the following condition: 10 Watts/m^2 of light, 30° C., and anaerobic condition and the amount of hydrogen produced was tested. The ethanol was added at 0.2 vol % and the cell growth, and hydrogen production and analysis were performed as described in Example 1.
To determine the optimal concentration and time of the alcohol added, the accumulated amount of hydrogen produced was measured in R. sphaeroides in the presence of varying amounts of ethanol from 0.01 vol % to 2 vol % (volume/volume %) by incubating them under the same condition as described in Example 1.
In addition to ethanol, other alcohols, that is, methanol (CH3OH), propanol (CH3CH2CH2OH), isopropanol [(CH3)2CHOH], butanol [CH3(CH2)2CH2OH], isoamyl alcohol, [(CH3)2CHCH2CH2OH] were tested. Under the same condition as used in Example 1, each alcohol was added to the cells at the concentration of 0.1%, 0.2%, 0.5%, or 1.0%.

R. sphaeroides [2] = test system: R. sphaeroides
Experimental: The wild type R. sphaeroides cells were grown under 10 Watts/m^2 of light as described in Example 1 and tested for the production of hydrogen.
The hydrogen produced was analyzed as described in Example 1.

nitrogenase = test system: nitrogenase
Experimental: The activity of nitrogenase was measured by the rate of ethylene (C2H4) produced using the acetylene (C2H2) as a substrate. The nitrogenase has an ability to produce hydrogen and ethylene by reducing proton (H+) and acetylene in addition to using N2 as substrate (Kern et al. 1992. Appl. Microbiol. Biotechnol. 37: 496-500). The activity of the nitrogenase was measured by incubating R. sphaeroides under the photosynthetic condition of 10 Watts/m^2 of light. 10 ml of the bacteria (10^8 CFU/ml) was placed in a serum vial (65 ml) and incubated under the light until the KU (Klett Unit) reached 150 to 200. To prevent the de novo protein synthesis during the incubation period, chloramphenicol was used at 50 μg/ml and the air in the vial was replaced with argon before use. Acetylene was injected into the vial to occupy 10% of the entire air phase using a gas-tight syringe. The cells were first incubated for 10 min without light and the reaction started under the 10 Watts/m^2 light. The amount of ethylene produced was measured by withdrawing an aliquot of the gas in the gas phase using a gas-tight syringe and by subject them to GC analysis.

[3] = test system: Rhodobacter capsulatus SB1003; details: R. capsulatus; ethanol 0.2 vol %; modified Sistrom medium depleted with ammonium ion; 120 hours
Experimental: Rhodobacter capsulatus SB1003 and Rhodospirillum rubrum UR1 selected for the experiment due to their well characterization. For the growth of R. capsulatus, a modified Sistrom medium depleted with ammonium ion was used; and for the growth of R. rubrum, MG minimal medium was used as described in Lehman and Roberts. 1991. J. Bacteriol. 173: 5705-5711.
as §1

[4] = concentration not stated (tested at 0.1%, 0.2%, 0.5%, or 1.0%)

CO [Methanol, methanol]
hydrogen production (R. sphaeroides [1]; alcohol at 0.1%, 0.2%, and 0.5%): increased
cell growth (R. sphaeroides [1]; alcohol at 1.0%): inhibit the cell growth
concentration with the highest effect on hydrogen production (R. sphaeroides [1]; tested at 0.1%, 0.2%, 0.5%, or 1.0%): 0.2%

CCO [ethanol]
hydrogen gas producing ability remained in 2 mM ammonium ion compared to 0 mM ammonium ion (R. sphaeroides [2]; 0.2% ethanol, modified medium, FIG. 4): not less than 80%
nitrogenase activity remained in the presence of ammonium ion (R. sphaeroides [2]; after the addition of ethanol): more than 80%
growth of cells (R. sphaeroides [1]; 2% ethanol): inhibited the growth
hydrogen produced (R. sphaeroides [1]; 2% ethanol): very much decreased
fold increase (hydrogen produced in the presence of alcohol/in the absence of alcohol) (R. sphaeroides [1]; R. sphaeroides, ethanol 0.2 vol %, 120 hours): 2.21 fold
growth of bacteria (R. sphaeroides [1]; ethanol 0.1 vol % and 0.5 vol %, Sistrom medium containing ammonium ion): not affected
hydrogen production, times higher than the control (R. sphaeroides [1]; ethanol 0.1 vol % or 0.5 vol % vs control without ethanol): 10 times
efficiency of hydrogen production (R. sphaeroides [1]; ethanol 0.1 vol %, Sistrom medium containing ammonium ion): 5.04 mole H2/mole succinate
effect on hydrogen production by time of addition (R. sphaeroides [1]; ethanol 0.5 vol % added with inoculation (10 KU) or at 100 KU compared to addition at 300 KU, FIG. 5): higher increasing effect on the hydrogen production
efficiency of hydrogen production (R. sphaeroides [1]; ethanol 0.5 vol %, Sistrom medium containing ammonium ion): 5.72 mole H2/mole succinate
accumulated hydrogen production, wild type strain (R. sphaeroides [1]; ethanol 0.5 vol %, Sistrom medium containing ammonium ion, FIG. 3): increased hydrogen production
hydrogen production (R. sphaeroides [1]; ethanol less than 0.05%): not shown to increase
activity of nitrogenase, times higher than the control (nitrogenase; 0.2 vol % ethanol vs control without ethanol): 4 times
activity of nitrogenase (nitrogenase; 0.2 vol % of EtOH, 10 Watts/m^2 light): 18.2 nmole KU^−1 h^−1
fold increase (hydrogen produced in the presence of alcohol/in the absence of alcohol) [3]: 1.5 fold and 1.53 fold

CC(C)CCO [isoamyl alcohol]
hydrogen production (R. sphaeroides [1]; [4]): decrease the hydrogen production

CC(C)O [isopropanol]
increase of hydrogen production (R. sphaeroides [1]; [4]): about 35%

CCCO [propanol]
concentration with the highest effect on hydrogen production (R. sphaeroides [1]): 0.5%
hydrogen production (R. sphaeroides [1]): increased

butanol
concentration with the highest effect on hydrogen production (R. sphaeroides [1]): 0.2%
hydrogen production (R. sphaeroides [1]): increased
